Laboratory results published in patent US8916602B2, “Fusarisetin compounds, and use thereof” (Korea Research Institute of Bioscience and Biotechnology, priority 2010, dated 2014).
Converted amounts (≈) assume the structure as drawn.

Columns and labels:
Assay type in all cases: cell-based
[1] = test system: mouse fibroblast cell line (3Y1); test: Inhibition of cell proliferation (WST-8 cell survival), 3Y1; conditions: 3Y1 cell line, 48 hours culture with compound, WST-8, OD450
Method: (§1) Following experiment was performed to investigate the inhibitory activity of the compounds 1 and 2 of the present invention on the proliferation of cancer cells.
(§2) Particularly, human breast cancer cell line (MDA-MB-231, 5.0×10^3 cells per well), mouse fibroblast cell line (3Y1, 5.0×10^3 cells per well), and human liver cancer cell line (Hep3B, 5.0×10^3 cells per well) were cultured respectively in DMEM (Dulbecco's modification of Eagles medium, supplemented with 10% FBS). And human chronic myeloid leukemia cell line (K562, 3.0×10^4 cells per well) and human promyelocytic leukemia cell line (HL-60, 1.0×10^5 cells per well) were cultured respectively in RPMI 1640 (Roswell Park Memorial Institute 1640 medium, supplemented with 10% FBS). Each cell line cultured above was treated with different concentrations of the compound 1 and compound 2 (100 μg/ml, 30 μg/ml, 10 μg/ml, 3 μg/ml, and 1 μg/ml), followed by culture in a 5% CO2 incubator for 48 hours at 37° C. WST-8 reagent (2-(2-methoxy-4-nitrophenyl)-3-(4-nitrophenyl)-5-(2,4-disulfophenyl)-2H-tetrazolium, monosodium salt) producing high sensitive water soluble formazan was added thereto, followed by further culture for 24 hours. OD450 was measured to calculate cell survival rate.

[2] = test system: human breast cancer cells (MDA-MB-231 cells); test: Inhibition of cancer cell metastasis, trans-well chamber (Matrigel Invasion Chamber); conditions: migration induced by 10% FBS, 24 hours, tested at 30, 10 and 3 μg/ml
Method: Trans-well chamber (BioCoat™ Matrigel™ Invasion Chamber, pore size 8 μm, BD Biosciences, Bedford, Mass.) was used for the investigation of inhibitory activity of the compounds of the present invention on cancer cell metastasis. Particularly, human breast cancer cells (MDA-MB-231 cells) were distributed on the upper part of the chamber at the density of 1.0×10^5 cells per well. DMEM (Dulbecco's modification of Eagles medium, serum-free) was used for the culture. 30 minutes later, the compounds 1 and 2 were added to the upper part of the chamber at different concentrations of 30 μg/ml, 10 μg/ml, and 3 μg/ml, respectively. 30 minutes later, 10% FBS was added to the bottom of the chamber, followed by culture in a 5% CO2 incubator at 37° C. for 24 hours. 24 hours later, the cells migrated through porous membrane which had been induced by 10% FBS in the bottom of the chamber were fixed with 100% MeOH, followed by staining with Wright stain. Upon completion of the staining, the migrated cells were counted under microscope.

[3] = test system: human liver cancer cell line (Hep3B); test: Inhibition of cancer cell proliferation (WST-8 cell survival), Hep3B; conditions: 48 hours culture with compound, WST-8, OD450
Method: as §1, §2

[4] = test system: human chronic myeloid leukemia cell line (K562); test: Inhibition of cancer cell proliferation (WST-8 cell survival), K562; conditions: 48 hours culture with compound, WST-8, OD450
Method: as §1, §2

[5] = test system: human promyelocytic leukemia cell line (HL-60); test: Inhibition of cancer cell proliferation (WST-8 cell survival), HL-60; conditions: HL-60 cell line, 48 hours culture with compound, WST-8, OD450
Method: as §1, §2

[6] = test system: human breast cancer cell line (MDA-MB-231); test: Inhibition of cancer cell proliferation (WST-8 cell survival), MDA-MB-231; conditions: MDA-MB-231 cell line, 48 hours culture with compound, WST-8, OD450
Method: as §1, §2

Row | SMILES | IC50 [1] [µg/mL] | ED100 indicating the concentration capable of inhibiting metastasis of human breast cancer cell line by 100% [2] [µg/mL] | IC50 [3] [µg/mL] | IC50 [4] [µg/mL] | IC50 [5] [µg/mL] | IC50 [6] [µg/mL]
1 | C[C@H]1CC[C@H]2[C@@H](C=C[C@@H]3[C@H]4[C@H](C)O[C@]5(O)[C@@H](CO)N(C)C(=O)[C@]45C(=O)[C@@]32C)C1 [compound 2, fusarisetin B] | 62.2 (≈ 160 µM) | 10 | 27.2 (≈ 69.8 µM) | 49.3 (≈ 127 µM) | 29.4 (≈ 75.5 µM) | 76.5 (≈ 196 µM)
2 | C[C@H]1CC[C@H]2[C@@H](C=C[C@@H]3[C@H]4[C@@H](C)O[C@]5(O)[C@@H](CO)N(C)C(=O)[C@]45C(=O)[C@@]32C)C1 [compound 1, fusarisetin A] | 67.5 (≈ 173 µM) | 10 | 34.7 (≈ 89.1 µM) | 61.3 (≈ 157 µM) | 57.7 (≈ 148 µM) | 69.5 (≈ 178 µM)
